Experimental data as given in patent US12673961B2 (Agios Pharmaceuticals, Inc., priority 2022, dated 2026).

target: T1, human PAH with the R408W mutation (Homo sapiens, UniProt P00439, R408W); experiment: Cell Based Phenylalanine Flux Assay; settings: A375 cells expressing human R408W PAH; 24 hrs with compound, then sepiapterin and 13C9,15N-Phenylalanine for 4 hours; 13C-Tyrosine by LC-MS; average where tested multiple times; read-out: AC50;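 further: Ten-point dose curve from 2-fold serial dilutions, run in duplicate at 0.5% DMSO final, tracer step used 20 µM sepiapterin and 800 µM labeled phenylalanine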
T1 construct: expressed in transfected cells
T1 sequence (P00439 1-452 R408W): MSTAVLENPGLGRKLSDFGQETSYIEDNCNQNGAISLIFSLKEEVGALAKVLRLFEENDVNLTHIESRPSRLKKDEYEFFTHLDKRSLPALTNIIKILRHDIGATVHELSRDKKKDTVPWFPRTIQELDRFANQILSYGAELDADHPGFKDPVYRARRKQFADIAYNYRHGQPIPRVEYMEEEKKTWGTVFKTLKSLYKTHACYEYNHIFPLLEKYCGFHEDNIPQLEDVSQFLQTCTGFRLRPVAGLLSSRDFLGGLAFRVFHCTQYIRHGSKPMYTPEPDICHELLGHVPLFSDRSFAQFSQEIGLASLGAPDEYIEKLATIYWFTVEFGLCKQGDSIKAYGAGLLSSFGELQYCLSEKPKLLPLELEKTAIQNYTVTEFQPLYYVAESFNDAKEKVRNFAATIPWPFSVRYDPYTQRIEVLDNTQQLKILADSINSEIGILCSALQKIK

First: CC(C)(F)c1nnc(C(=O)N2CCc3[nH]cnc3[C@@H]2c2cc3cccc(C(F)F)n3n2)o1 [Example 1437, (R)-(4-(7-(difluoromethyl)pyrazolo[1,5-a]pyridin-2-yl)-6,7-dihydro-1H-imidazo[4,5-c]pyridin-5(4H)-yl)(5-(2-fluoropropan-2-yl)-1,3,4-oxadiazol-2-yl)methanone]
Second: O=C(c1nnc(-c2cnn(C(F)(F)F)c2)o1)N1CCc2[nH]cnc2[C@H]1c1cc2cccc(C(F)F)n2n1 [Example 1502, (S)-(4-(7-(difluoromethyl)pyrazolo[1,5-a]pyridin-2-yl)-6,7-dihydro-1H-imidazo [4,5-c]pyridin-5(4H)-yl)(5-(1-(trifluoromethyl)-1H-pyrazol-4-yl)-1,3,4-oxadiazol-2-yl)methanone]
The AC50 of the first is higher: 1000 to 5000 nM for the first, 500 to 1000 nM for the second.

Compared with `O=C(c1nnc(-c2ccn(C(F)F)n2)o1)N1CCc2[nH]cnc2[C@@H]1c1cc2cccc(C(F)F)n2n1` [Example 1443, (R)-(5-(1-(difluoromethyl)-1H-pyrazol-3-yl)-1,3,4-oxadiazol-2-yl)(4-(7-(difluoromethyl)pyrazolo[1,5-a]pyridin-2-yl)-6,7-dihydro-1H-imidazo[4,5-c]pyridin-5(4H)-yl)methanone], `Cc1cccc2cc([C@@H]3c4nc[nH]c4CCN3C(=O)c3nnc(-c4ccn(C(F)(F)F)n4)o3)nn12` [Example 1510, (S)-(4-(7-methylpyrazolo [1,5-a]pyridin-2-yl)-6,7-dihydro-1H-imidazo[4,5-c]pyridin-5(4H)-yl)(5-(1-(trifluoromethyl)-1H-pyrazol-3-yl)-1,3,4-oxadiazol-2-yl)methanone] is lower in AC50: 1000 to 5000 nM for the first, 500 to 1000 nM for the second.

First: Cc1cccc2cc([C@@H]3c4nc[nH]c4CCN3C(=O)c3nnc(-c4cnn(C(F)(F)F)c4)o3)nn12 [Example 1446, (S)-(4-(7-methylpyrazolo [1,5-a]pyridin-2-yl)-6,7-dihydro-1H-imidazo[4,5-c]pyridin-5(4H)-yl)(5-(1-(trifluoromethyl)-1H-pyrazol-4-yl)-1,3,4-oxadiazol-2-yl)methanone]
Second: Cc1cccc2cc([C@H]3c4nc[nH]c4CCN3C(=O)c3nnc(-c4ccn(C(F)(F)F)n4)o3)nn12 [Example 1511, (R)-(4-(7-methylpyrazolo [1,5-a]pyridin-2-yl)-6,7-dihydro-1H-imidazo[4,5-c]pyridin-5(4H)-yl)(5-(1-(trifluoromethyl)-1H-pyrazol-3-yl)-1,3,4-oxadiazol-2-yl)methanone]
The AC50 of the first is lower: 500 to 1000 nM for the first, 1000 to 5000 nM for the second.

Going from `CC(C)c1nnc(C(=O)N2CCc3[nH]cnc3[C@@H]2c2cc3c(F)cccn3n2)o1` [Example 1453, (R)-(4-(4-fluoropyrazolo [1,5-a]pyridin-2-yl)-6,7-dihydro-1H-imidazo[4,5-c]pyridin-5(4H)-yl)(5-isopropyl-1,3,4-oxadiazol-2-yl)methanone] to `CC(C)c1nnc(C(=O)N2CCc3[nH]cnc3[C@H]2c2cc3c(Cl)cccn3n2)o1` [Example 1484, (S)-(4-(4-chloropyrazolo [1,5-a]pyridin-2-yl)-6,7-dihydro-1H-imidazo[4,5-c]pyridin-5(4H)-yl)(5-isopropyl-1,3,4-oxadiazol-2-yl)methanone], the AC50 falls from greater than 5000 nM to less than 500 nM.

`Cc1nn(C)cc1-c1nnc(C(=O)N2CCc3[nH]cnc3[C@H]2c2cc3c(C(F)F)cccn3n2)o1` [Example 1466, (S)-(4-(4-(difluoromethyl)pyrazolo[1,5-a]pyridin-2-yl)-6,7-dihydro-1H-imidazo[4,5-c]pyridin-5(4H)-yl)(5-(1,3-dimethyl-1H-pyrazol-4-yl)-1,3,4-oxadiazol-2-yl)methanone] and `O=C(c1nnc(C2CCC2)o1)N1CCc2[nH]cnc2[C@H]1c1cc2c(C(F)F)cccn2n1` [Example 1520, (S)-(5-cyclobutyl-1,3,4-oxadiazol-2-yl)(4-(4-(difluoromethyl)pyrazolo [1,5-a]pyridin-2-yl)-6,7-dihydro-1H-imidazo[4,5-c]pyridin-5(4H)-yl)methanone] cannot be ordered by AC50: less than 500 nM for the first, less than 500 nM for the second.

First: Cc1cccc(-c2nnc(C(=O)N3CCc4[nH]cnc4[C@@H]3c3cc4c(F)cccn4n3)o2)n1 [Example 1471, (R)-(4-(4-fluoropyrazolo [1,5-a]pyridin-2-yl)-6,7-dihydro-1H-imidazo[4,5-c]pyridin-5(4H)-yl)(5-(6-methylpyridin-2-yl)-1,3,4-oxadiazol-2-yl)methanone]
Second: O=C(c1nnc(-c2ccn(C(F)(F)F)n2)o1)N1CCc2[nH]cnc2[C@H]1c1cc2c(F)cccn2n1 [Example 1482, (S)-(4-(4-fluoropyrazolo[1,5-a]pyridin-2-yl)-6,7-dihydro-1H-imidazo[4,5-c]pyridin-5(4H)-yl)(5-(1-(trifluoromethyl)-1H-pyrazol-3-yl)-1,3,4-oxadiazol-2-yl)methanone]
The AC50 of the first is higher: 1000 to 5000 nM for the first, less than 500 nM for the second.

Compared with `O=C(c1nnc(-c2ccn(C(F)(F)F)n2)o1)N1CCc2[nH]cnc2[C@H]1c1cc2c(Cl)cccn2n1` [Example 1476, (S)-(4-(4-chloropyrazolo [1,5-a]pyridin-2-yl)-6,7-dihydro-1H-imidazo[4,5-c]pyridin-5(4H)-yl)(5-(1-(trifluoromethyl)-1H-pyrazol-3-yl)-1,3,4-oxadiazol-2-yl)methanone], `Cc1cccn2nc([C@H]3c4nc[nH]c4CCN3C(=O)c3nnc(-c4ccn(C(F)(F)F)n4)o3)cc12` [Example 1479, (R)-(4-(4-methylpyrazolo [1,5-a]pyridin-2-yl)-6,7-dihydro-1H-imidazo[4,5-c]pyridin-5(4H)-yl)(5-(1-(trifluoromethyl)-1H-pyrazol-3-yl)-1,3,4-oxadiazol-2-yl)methanone] is higher in AC50: less than 500 nM for the first, 1000 to 5000 nM for the second.

First: O=C(c1nnc(-c2ccn(C(F)(F)F)n2)o1)N1CCc2[nH]cnc2[C@@H]1c1cc2c(F)cccn2n1 [Example 1483, (R)-(4-(4-fluoropyrazolo [1,5-a]pyridin-2-yl)-6,7-dihydro-1H-imidazo[4,5-c]pyridin-5(4H)-yl)(5-(1-(trifluoromethyl)-1H-pyrazol-3-yl)-1,3,4-oxadiazol-2-yl)methanone]
Second: O=C(c1nnc(-c2ccn(C(F)(F)F)n2)o1)N1CCc2[nH]cnc2[C@H]1c1cc2cccc(Cl)n2n1 [Example 1508, (S)-(4-(7-chloropyrazolo [1,5-a]pyridin-2-yl)-6,7-dihydro-1H-imidazo[4,5-c]pyridin-5(4H)-yl)(5-(1-(trifluoromethyl)-1H-pyrazol-3-yl)-1,3,4-oxadiazol-2-yl)methanone]
The AC50 of the first is higher: 1000 to 5000 nM for the first, less than 500 nM for the second.

First: CC(C)c1nnc(C(=O)N2CCc3[nH]cnc3[C@@H]2c2cc3cccc(Cl)n3n2)o1 [Example 1489, (R)-(4-(7-chloropyrazolo [1,5-a]pyridin-2-yl)-6,7-dihydro-1H-imidazo[4,5-c]pyridin-5(4H)-yl)(5-isopropyl-1,3,4-oxadiazol-2-yl)methanone]
Second: Cc1cccc2cc([C@@H]3c4nc[nH]c4CCN3C(=O)c3nnc(C(C)C)o3)nn12 [Example 1490, (S)-(5-isopropyl-1,3,4-oxadiazol-2-yl)(4-(7-methylpyrazolo[1,5-a]pyridin-2-yl)-6,7-dihydro-1H-imidazo[4,5-c]pyridin-5(4H)-yl)methanone]
The AC50 of the first is higher: 1000 to 5000 nM for the first, 500 to 1000 nM for the second.

`O=C(c1nnc(-c2cnn(C(F)(F)F)c2)o1)N1CCc2[nH]cnc2[C@@H]1c1cc2c(Cl)cccn2n1` [Example 1505] and `O=C(c1nnc(-c2ccn(C(F)(F)F)n2)o1)N1CCc2[nH]cnc2[C@@H]1c1cc2cccc(Cl)n2n1` [Example 1509, (R)-(4-(7-chloropyrazolo [1,5-a]pyridin-2-yl)-6,7-dihydro-1H-imidazo[4,5-c]pyridin-5(4H)-yl)(5-(1-(trifluoromethyl)-1H-pyrazol-3-yl)-1,3,4-oxadiazol-2-yl)methanone] cannot be ordered by AC50: greater than 5000 nM for the first, greater than 5000 nM for the second.

Compared with `O=C(c1nnc(C2CCC2)o1)N1CCc2[nH]cnc2[C@@H]1c1cc2ccccn2n1` [Example 1515, (R)-(5-cyclobutyl-1,3,4-oxadiazol-2-yl)(4-(pyrazolo[1,5-a]pyridin-2-yl)-6,7-dihydro-1H-imidazo[4,5-c]pyridin-5(4H)-yl)methanone], `O=C(c1nnc(C2CCC2)o1)N1CCc2[nH]cnc2[C@H]1c1cc2c(Cl)cccn2n1` [Example 1517, (S)-(4-(4-chloropyrazolo [1,5-a]pyridin-2-yl)-6,7-dihydro-1H-imidazo[4,5-c]pyridin-5(4H)-yl)(5-cyclobutyl-1,3,4-oxadiazol-2-yl)methanone] is lower in AC50: greater than 5000 nM for the first, less than 500 nM for the second.

First: O=C(c1nnc(C2CCC2)o1)N1CCc2[nH]cnc2[C@H]1c1cc2c(C(F)(F)F)cccn2n1 [Example 1519, (S)-(5-cyclobutyl-1,3,4-oxadiazol-2-yl)(4-(4-(trifluoromethyl)pyrazolo [1,5-a]pyridin-2-yl)-6,7-dihydro-1H-imidazo[4,5-c]pyridin-5(4H)-yl)methanone]
Second: Cn1nccc1-c1nnc(C(=O)N2CCc3[nH]cnc3[C@H]2c2cc3cccc(F)n3n2)o1 [Example 1526, (S)-(4-(7-fluoropyrazolo[1,5-a]pyridin-2-yl)-6,7-dihydro-1H-imidazo[4,5-c]pyridin-5(4H)-yl)(5-(1-methyl-1H-pyrazol-5-yl)-1,3,4-oxadiazol-2-yl)methanone]
The AC50 of the first is lower: less than 500 nM for the first, 500 to 1000 nM for the second.

`Cc1cnn(C)c1-c1nnc(C(=O)N2CCc3[nH]cnc3[C@@H]2c2cc3cccc(F)n3n2)o1` [Example 1529, (R)-(5-(1,4-dimethyl-1H-pyrazol-5-yl)-1,3,4-oxadiazol-2-yl)(4-(7-fluoropyrazolo [1,5-a]pyridin-2-yl)-6,7-dihydro-1H-imidazo[4,5-c]pyridin-5(4H)-yl)methanone] showed an AC50 of 1000 to 5000 nM.
